{"source": "patent US20230356105A1", "about": "“TETRAAZADODECANE BASED CHELATING AGENTS FOR SEPARATION OF RARE EARTH ELEMENTS AND METHOD THEREFOR” (Ustav Organicke Chemie a Biochemie AV CR V.V.I., priority 2020, published 2023)", "key": {"[1]": {"test": "Separation of Nd/Pr mixture by repeated precipitation using L5 and α-HIBA (Example 19)", "assay_type": "physicochemical", "conditions": "for Precipitate concentration [mM] Nd / precipitate concentration [mM] Pr: dissolved to 200 μL", "description": "Stock solutions were pipetted into 4 mL glass vials to prepare reaction mixtures with concentrations as follows: • 1. 11 mM (1.1 eq) chelator L5 • 2. 5 mM (0.5 eq) PrCl3 • 3. 5 mM (0.5 eq) NdCl3 • 4. […] (4 eq) α-HIBA pH=6.5 • 5. 500 mM (50 eq) MOPS pH=7\nThree aqueous reaction mixtures, numbered 1-3, were prepared with a total volume of 2 mL each and were treated identically throughout the process. A PTFE-coated magnetic stir bar was added to each and the reaction mixtures were stirred on a magnetic stirrer overnight at room temperature. After 18 hours, a 200 μL aliquot of the resulting suspension was taken from each vial and labelled as Al, A2, or A3, according to the reaction mixture number it was taken from. The aliquots were then centrifuged in a plastic Eppendorf centrifuge tube. The supernatant was carefully pipetted from each and transferred to a new set of tubes. To the precipitate was added 200 μL 1 M HCl and the mixture was stirred until full dissolution (about 1 hour at room temperature). The Nd and Pr content of these precipitate and supernatant samples was determined by ICP-OES. The remaining 1800 μL of reaction mixture were centrifuged in plastic Eppendorf centrifuge vials, and the supernatant was set aside. A sample of the supernatant was analysed on HPLC-MS and peak areas were compared to those of a standard 10 mM chelate solution; this allowed for calculation of the approximate concentration of chelate remaining in solution, and therefore of the quantity of chelate which had precipitated. The total volume for subsequent reactions was scaled according to this information, such that the concentration of chelate in solution prior to precipitation was 10 mM, even as the net quantity of chelate present was reduced. The precipitate, then, was dissolved by addition of 25 molar equivalents of 1 M HCl and transferred to a clean 4 mL glass vial with a PTFE-coated magnetic stir bar. 4 molar equivalents of a-HIBA were added to this vial, followed by 50 molar equivalents 3 M MOPS pH=7, the necessary calculated volume of water, and 25 molar equivalents 2 M NaOH to finish neutralising the reaction mixture. (The final reaction volume here was not so important as the final reaction concentrations.) The reaction mixtures were again stirred on a magnetic stirrer at room temperature overnight. After 18 hours, the resulting suspensions were treated in the same manner as before, with 200 μL aliquots (labelled as B1, B2, B3) taken for ICP-OES determination of the Nd and Pr content of the precipitate and supernatant. The remaining 1600 μL of reaction mixture were centrifuged, and the supernatant was analysed by HPLC-MS; the precipitate was treated as before to again yield a reaction solution with an initial concentration of 10 mM of chelate. The reaction mixtures were stirred overnight for the third repetition of processing, and 200 μL aliquots (C1, C2, C3) were again treated for ICP-OES determination of Nd and Pr content in the precipitate and supernatant after 18 hours. The resulting absolute concentrations of both metals in the supernatants and precipitates, as well as calculated values of the separation factor Nd/Pr according to the formula from Example 11), are summarized in Table 13. […] The average separation factor was 1.69."}, "[2]": {"test": "Separation of Pr from L5 by C18 column (Example 28)", "assay_type": "physicochemical", "description": "Stock solutions were pipetted into a 20 mL glass vial to prepare a reaction mixture as follows: • 1. 1.00 mL 100 mM aqueous solution of PrCl3 • 2. 0.60 mL 218 mM aqueous solution of L5\nNaOH (2 M aqueous stock solution) was added by micropipette to titrate the reaction pH to 6. This reaction was stirred by the use of a PTFE-coated stir bar on a magnetic stirrer at room temperature for 30 minutes. The resulting suspension was transferred into two 2 mL plastic Eppendorf centrifuge tubes and centrifuged. The supernatant was set aside and analysed by HPLC, and the precipitate was dissolved by addition of 0.15 mL 1 M HCl to each Eppendorf tube. These dissolved solutions were combined and titrated to pH 2 by addition of 2 M NaOH.\nThe L5 and Pr present in the acidic solution were separated by reverse-phase chromatography, using 1.01 g fully-endcapped C18 silica gel in a plastic SPE cartridge (2 cm diameter). After conditioning the reversed phase with MeCN and MeCN/H20 solutions, 1 mL of H2O was run through the column before loading the L5-Pr solution onto the column. MeCN/H20 solutions were used to elute the components from the column: 2 mL 0% MeCN, 4 mL 10% MeCN, 4 mL 25% MeCN, and 4 mL 50% MeCN. The eluted solutions were collected as seven 2 mL fractions. All fractions were analysed by HPLC-MS to determine L5 content. The first two fractions were also analysed by ICP-OES to determine Pr content.\nThe distribution of L5 and Pr in the fractions is shown in Table 21, where the quantity of each component present in each fraction is provided as a fraction of the total quantity of the component found in the sum of the fractions, as well as the measured content of Pr (in mM) and L5 (as the integrations of the chromatographic peak areas at 280 nm) found in each fraction."}}, "note": "“And” between values parts separate entries of the source, which are not always exact repeats. Equal values may be shown once.", "data": [{"molecule": "O=C(O)CN1CCN(CC(=O)O)CCN(Cc2cccc3ccccc23)CCN(CC(=O)O)CC1", "note": "[L5, 2,2′,2″-(10-(naphthalene-1-ylmethyl)-1,4,7,10-tetraazacyklododekane-1,4,7-triyl)triacetic acid]", "values": [{"measurement": "Supernatant concentration [mM] Nd", "setting": "[1]; A, 1st precipitation", "value": "1.16 mM and 1.49 mM"}, {"measurement": "supernatant concentration [mM] Pr", "setting": "[1]; A, 1st precipitation, 20 mM (4 eq) α-HIBA", "value": "0.73 mM and 1.00 mM and 0.72 mM"}, {"measurement": "supernatant concentration [mM] Pr", "setting": "[1]; A, 1st precipitation, 20 mM (4 eq) α-HIBA, mean", "value": 0.82, "unit": "mM"}, {"measurement": "Precipitate concentration [mM] Nd", "setting": "[1]; A, 1st precipitation", "value": "3.34 mM and 3.17 mM and 3.59 mM"}, {"measurement": "precipitate concentration [mM] Pr", "setting": "[1]; A, 1st precipitation", "value": "3.57 mM and 3.50 mM and 3.83 mM"}, {"measurement": "Precipitate concentration [mM] Nd", "setting": "[1]; A, 1st precipitation, mean", "value": 3.37, "unit": "mM"}, {"measurement": "precipitate concentration [mM] Pr", "setting": "[1]; A, 1st precipitation, mean", "value": 3.63, "unit": "mM"}, {"measurement": "Supernatant concentration [mM] Nd", "setting": "[1]; A, 1st precipitation, mean", "value": 1.27, "unit": "mM"}, {"measurement": "Supernatant concentration [mM] Nd", "setting": "[1]; B, 2nd precipitation", "value": "0.94 mM and 0.79 mM and 0.88 mM"}, {"measurement": "supernatant concentration [mM] Pr", "setting": "[1]; B, 2nd precipitation", "value": "0.63 mM and 0.56 mM and 0.58 mM"}, {"measurement": "Precipitate concentration [mM] Nd", "setting": "[1]; B, 2nd precipitation", "value": "3.81 mM and 3.53 mM and 3.91 mM"}, {"measurement": "precipitate concentration [mM] Pr", "setting": "[1]; B, 2nd precipitation", "value": "4.45 mM and 4.22 mM and 4.52 mM"}, {"measurement": "Precipitate concentration [mM] Nd", "setting": "[1]; B, 2nd precipitation, mean", "value": 3.75, "unit": "mM"}, {"measurement": "precipitate concentration [mM] Pr", "setting": "[1]; B, 2nd precipitation, mean", "value": 4.40, "unit": "mM"}, {"measurement": "Supernatant concentration [mM] Nd", "setting": "[1]; B, 2nd precipitation, mean", "value": 0.87, "unit": "mM"}, {"measurement": "supernatant concentration [mM] Pr", "setting": "[1]; B, 2nd precipitation, mean", "value": 0.59, "unit": "mM"}, {"measurement": "Supernatant concentration [mM] Nd", "setting": "[1]; C, 3rd precipitation", "value": "0.87 mM and 0.93 mM and 0.75 mM"}, {"measurement": "supernatant concentration [mM] Pr", "setting": "[1]; C, 3rd precipitation", "value": "0.66 mM and 0.74 mM and 0.56 mM"}, {"measurement": "Precipitate concentration [mM] Nd", "setting": "[1]; C, 3rd precipitation", "value": "3.70 mM and 3.29 mM and 4.06 mM"}, {"measurement": "precipitate concentration [mM] Pr", "setting": "[1]; C, 3rd precipitation", "value": "4.70 mM and 4.31 mM and 4.98 mM"}, {"measurement": "Precipitate concentration [mM] Nd", "setting": "[1]; C, 3rd precipitation, mean", "value": 3.68, "unit": "mM"}, {"measurement": "precipitate concentration [mM] Pr", "setting": "[1]; C, 3rd precipitation, mean", "value": 4.66, "unit": "mM"}, {"measurement": "Supernatant concentration [mM] Nd", "setting": "[1]; C, 3rd precipitation, mean", "value": 0.85, "unit": "mM"}, {"measurement": "supernatant concentration [mM] Pr", "setting": "[1]; C, 3rd precipitation, mean", "value": 0.65, "unit": "mM"}, {"measurement": "% distribution in fractions L5", "setting": "[2]; fraction 1 (0% MeCN)", "value": 0.0, "unit": "%"}, {"measurement": "% distribution in fractions Pr", "setting": "[2]; fraction 1 (0% MeCN)", "value": 87, "unit": "%"}, {"measurement": "measured content of fraction L5 peak area (280 nm)", "setting": "[2]; fraction 1 (0% MeCN)", "value": 0, "unit": "AU"}, {"measurement": "measured content of fraction Pr", "setting": "[2]; fraction 1 (0% MeCN)", "value": 18.95, "unit": "mM"}, {"measurement": "% distribution in fractions L5", "setting": "[2]; fraction 2 (10% MeCN)", "value": 0.1, "unit": "%"}, {"measurement": "% distribution in fractions Pr", "setting": "[2]; fraction 2 (10% MeCN)", "value": 13, "unit": "%"}, {"measurement": "measured content of fraction L5 peak area (280 nm)", "setting": "[2]; fraction 2 (10% MeCN)", "value": 3, "unit": "AU"}, {"measurement": "measured content of fraction Pr", "setting": "[2]; fraction 2 (10% MeCN)", "value": 2.82, "unit": "mM"}, {"measurement": "% distribution in fractions L5", "setting": "[2]; fraction 3 (10% MeCN)", "value": 56.8, "unit": "%"}, {"measurement": "measured content of fraction L5 peak area (280 nm)", "setting": "[2]; fraction 3 (10% MeCN)", "value": 2258, "unit": "AU"}, {"measurement": "% distribution in fractions L5", "setting": "[2]; fraction 4 (25% MeCN)", "value": 34.8, "unit": "%"}, {"measurement": "measured content of fraction L5 peak area (280 nm)", "setting": "[2]; fraction 4 (25% MeCN)", "value": 1382, "unit": "AU"}, {"measurement": "% distribution in fractions L5", "setting": "[2]; fraction 5 (25% MeCN)", "value": 8.1, "unit": "%"}, {"measurement": "measured content of fraction L5 peak area (280 nm)", "setting": "[2]; fraction 5 (25% MeCN)", "value": 324, "unit": "AU"}, {"measurement": "% distribution in fractions L5", "setting": "[2]; fraction 6 (50% MeCN)", "value": 0.1, "unit": "%"}, {"measurement": "measured content of fraction L5 peak area (280 nm)", "setting": "[2]; fraction 6 (50% MeCN)", "value": 5, "unit": "AU"}, {"measurement": "% distribution in fractions L5", "setting": "[2]; fraction 7 (50% MeCN)", "value": 0.1, "unit": "%"}, {"measurement": "measured content of fraction L5 peak area (280 nm)", "setting": "[2]; fraction 7 (50% MeCN)", "value": 3, "unit": "AU"}]}]}
